The structures appear in SMILES notation. Where “and” joins values, the source holds several entries; their conditions need not be identical. Identical values can stand only once. Numbers after ± are expanded uncertainties.

For data set [1] the following is noted: Liquid, DSC.
Data set [2] can be described thus: Boiling temperature at pressure P. The conditions noted are these: Liquid, DSC.

For the compound `CCCC(=O)OCC(COC(=O)CCC)OC(=O)CCC` [1,2,3-propanetriyl tributanoate], in data set [1] (459.56 K), the “vapor or sublimation pressure” value is 1.69 ± 0.19 kPa.

On to `CCCCCCCCCCCCCCCCO` [1-hexadecanol], for which the “vapor or sublimation pressure” value in data set [1] (462.29 K) is 1.73 ± 0.17 kPa and 1.72 ± 0.17 kPa.

For the compound `CCCCCCCCCCCCCCCCCCO` [1-octadecanol], in data set [1] (483.46 K), the “vapor or sublimation pressure” value is 1.73 ± 0.19 kPa.

In the case of `CCCCCCCCC(=O)OCC(O)CO` (configuration not stated) [2,3-dihydroxypropyl nonanoate], the “vapor or sublimation pressure” value in data set [1] (478.88 K) is reported as 1.69 ± 0.19 kPa.

`CCCCCCCCC(=O)OCC(CO)OC(=O)CCCCCCCC` (configuration not stated) [dinonanoin]: the “vapor or sublimation pressure” value in data set [1] (532.03 K) is listed as 1.7 ± 0.19 kPa. The “Boiling temperature at pressure P” value is 231.07 ± 2.4 °C in data set [2] (0.54 kPa); 253.1 ± 3.1 °C in data set [2] (1.42 kPa); 258.40 ± 2.4 °C in data set [2] (1.74 kPa); 263.86 ± 2.6 °C in data set [2] (2.14 kPa); 269.97 ± 2.8 °C in data set [2] (2.63 kPa).

Consider `CCCCCCCCCCCCCC(=O)OC` [methyl tetradecanoate], for which the “vapor or sublimation pressure” value in data set [1] (437.72 K) worked out at 1.72 ± 0.19 kPa.

For `CCCCCCCCCCCCCCCCCCCCCCCCCCCC` [octacosane], the “vapor or sublimation pressure” value in data set [1] (550.62 K) came to 1.7 ± 0.17 kPa.

As usually defined, the vapor or sublimation pressure is the equilibrium pressure above the liquid or solid.

(Values after the NIST ThermoML archive (doi:10.1021/acs.jced.8b00168).)
